Source: US11464802B2, “3-substituted piperidine compounds for Cbl-b inhibition, and use thereof” (Nurix Therapeutics, Inc., priority 2019, dated 2022)
pIC50: −log10 of the molar value.

Columns and labels:
Cbl-b [1] = biological target: T1, Cbl-b (Homo sapiens (Human), UniProt Q13191); assay: Cbl-b displacement assay (Cbl-b inhibition assay), Biological Example 12; assay type: binding; settings: 0.125 nM Cbl-b final concentration (Low); Table 12-1; read-out: Cbl-b IC50 (Low)
Experimental: (§1) Candidate compounds were evaluated for their ability to bind and inhibit Cbl-b, an E3 ubiquitin-protein ligase, as evidenced by their ability to displace a fluorophore-labeled probe bound to Cbl-b.
(§2) The ability of candidate compounds to displace a known inhibitor and thereby inhibit Cbl-b activity was measured by monitoring the interaction of Cbl-b with a fluorophore-labeled probe in the presence of the candidate compound. A truncated variant of Cbl-b (UniProt number Q13191) containing residues 36-427 and an Avitag at its N-terminus was co-expressed with BirA biotin ligase and purified using a standard protocol (see Dou et al., Nature Structural and Molecular Biology 8: 982-987, 2013; Avidity LLC).
(§3) Fluorescently-labeled inhibitor probe was synthesized and tagged with BODIPY FL. Cbl-b displacement assays were performed in a 384-well plate at room temperature in a 10 μl reaction volume by pre-incubating 0.5 nM Cbl-b or 0.125 nM Cbl-b (final concentration, indicated as “High” and “Low”, respectively) in an assay buffer containing 20 mM HEPES pH 7.5, 150 mM NaCl, 0.01% Triton X-100, 0.01% BSA and 0.5 mM TCEP in the presence of a candidate compound in 1% DMSO (final concentration) for 1 hour. After incubation in the presence of the candidate compound, the plate was incubated for an additional 1 hour in the presence of an approximate EC40 binding saturation consisting of 150 nM fluorescently-labeled inhibitor probe and 2 nM Streptavidin-Terbium (Cisbio) (final concentrations). Following the 1 hour incubation, the plates were read for TR-FRET signal at 520/620 nM using an Envision plate reader (Perkin Elmer).
(§4) The resulting data for the Cbl-b activity assays were analyzed using standard methods to determine the IC50 values for the tested compounds.

Cbl-b [2] = biological target: T1, Cbl-b; assay: Cbl-b displacement assay (Cbl-b inhibition assay), TR-FRET probe displacement, Biological Example 1; assay type: binding
In short: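 N-terminally Avitagged, biotinylated truncated Cbl-b (0.5 nM "High" or 0.125 nM "Low", final) pre-incubated 1 h at room temperature with compound (1% DMSO) in HEPES pH 7.5 buffer. Then 150 nM BODIPY FL probe (~EC40) plus 2 nM streptavidin-terbium for 1 h; TR-FRET read at 520/620 nm.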

Cbl-b [3] = biological target: T1, Cbl-b; assay: Cbl-b displacement assay (Cbl-b inhibition assay), Biological Example 8; assay type: binding; settings: 0.125 nM Cbl-b final concentration (Low); Table 8-1; read-out: Cbl-b IC50 (Low)
Experimental: as §1, §2, §3, §4

[4] = test system: primary human total T-cells; assay: Primary human total T-cell activation: CD25 surface staining, Biological Example 2; assay type: cell-based; settings: 48 hours, fold change over baseline; for fold induction at 0.3 µM: inhibitor 0.3 μM; for fold induction at 1 µM: inhibitor 1 μM; for fold induction at 3 µM: inhibitor 3 μM
[5] = test system: primary human total T-cells; assay: Primary human total T-cell activation: IL-2 secretion, Biological Example 2; assay type: cell-based; settings: 48 hours, fold change over baseline; for fold induction at 0.3 µM: inhibitor 0.3 μM; for fold induction at 1 µM: inhibitor 1 μM; for fold induction at 3 µM: inhibitor 3 μM
[6] = test system: primary human total T-cells; assay: Primary human total T-cell activation: IL-2 secretion, Biological Example 9; assay type: cell-based; settings: 48 hours, fold change over baseline; for fold induction at 1 µM: inhibitor 1 μM
[7] = test system: primary human total T-cells; assay: Primary human total T-cell activation: CD25 surface staining, Biological Example 13; assay type: cell-based; settings: 48 hours, fold change over baseline; for fold induction at 1 µM: inhibitor 1 μM
[8] = test system: primary human total T-cells; assay: Primary human total T-cell activation: IL-2 secretion, Biological Example 13; assay type: cell-based; settings: 48 hours, fold change over baseline; for fold induction at 1 µM: inhibitor 1 μM
[9] = test system: primary human total T-cells; assay: Primary human total T-cell activation: CD25 surface staining, Biological Example 9; assay type: cell-based; settings: 48 hours, fold change over baseline; for fold induction at 1 µM: inhibitor 1 μM
[10] = 0.125 nM Cbl-b final concentration (Low), read-out: Cbl-b activity IC50 (Low)
[11] = Cbl-b concentration (High or Low) not given, read-out: IC50 values in the Cbl-b inhibition assay of Biological Example 1
[12] = anti-CD3/anti-CD28 co-stimulation
[13] = anti-CD3/anti-CD28 co-stimulation, read-out: CD25 staining CD3/CD28 1 μM
[14] = anti-CD3 alone, read-out: CD25 staining CD3 1 μM
[15] = anti-CD3/anti-CD28 co-stimulation, read-out: IL-2 secretion CD3/CD28 1 μM
[16] = anti-CD3 alone, read-out: IL-2 secretion CD3 1 μM
[17] = anti-CD3/anti-CD28 co-stimulation, inhibitor 0.3 μM, Table 9-1
[18] = anti-CD3/anti-CD28 co-stimulation, inhibitor 0.3 μM, Table 13-1

T1 sequence (Q13191 36-427): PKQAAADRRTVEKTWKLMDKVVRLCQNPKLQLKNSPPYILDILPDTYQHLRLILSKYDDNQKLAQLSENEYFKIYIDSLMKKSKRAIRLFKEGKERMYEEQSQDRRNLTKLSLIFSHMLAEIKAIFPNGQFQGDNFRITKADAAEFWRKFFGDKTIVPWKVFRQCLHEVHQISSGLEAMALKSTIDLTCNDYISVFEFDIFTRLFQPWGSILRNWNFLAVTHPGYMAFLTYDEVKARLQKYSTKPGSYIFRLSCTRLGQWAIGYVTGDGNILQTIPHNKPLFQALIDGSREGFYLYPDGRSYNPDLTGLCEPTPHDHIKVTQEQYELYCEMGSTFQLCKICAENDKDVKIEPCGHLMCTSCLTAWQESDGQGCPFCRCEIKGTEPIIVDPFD

SMILES	pIC50 (Cbl-b [2]; [10])	pIC50 (Cbl-b [2]; [11])	fold induction at 0.3 µM [4, 12]	fold induction at 1 µM [4, 13]	fold induction at 1 µM [4, 14]	fold induction at 3 µM ([4]; anti-CD3 alone)	fold induction at 0.3 µM [5, 12]	fold induction at 1 µM [5, 15]	fold induction at 1 µM [5, 16]	fold induction at 3 µM ([5]; anti-CD3 alone)	other results
C[C@@H]1CN(Cc2cc3c(c(C4CC4)n2)CN(c2cccc(C4(Cc5nncn5C)COC4)c2)C3=O)CCC1(F)F [Compound 34, (R)-4-Cyclopropyl-6-((4,4-difluoro-3-methylpiperidin-1-yl)methyl)-2-(3-(3-((4-methyl-4H-1,2,4-triazol-3-yl)methyl)oxetan-3-yl)phenyl)-2,3-dihydro-1H-pyrrolo[3,4-c]pyridin-1-one]	8.30 to 9.00										pIC50 (Cbl-b [1]): 8.30 to 9.00; pIC50 (Cbl-b [3]): 8.30 to 9.00
C[C@@H]1C[C@H](C)CN(Cc2cc3c(c(C(F)(F)F)c2)CN(c2cccc(-c4c(-c5nncn5C)cnn4C)c2)C3=O)C1 [Compound 45, 6-((cis-3,5-dimethylpiperidin-1-yl)methyl)-2-(3-(1-methyl-4-(4-methyl-4H-1,2,4-triazol-3-yl)-1H-pyrazol-5-yl)phenyl)-4-(trifluoromethyl)isoindolin-1-one]		8.30 to 9.00	1.25 to 1.39	< 1.24	< 1.04	< 1.04	11 to 15	11 to 15	0.34 to 0.66	0.34 to 0.66	pIC50 (Cbl-b [2]; 0.5 nM Cbl-b final concentration (High), read-out: Cbl-b activity IC50 (High)): 8.30 to 9.00
C[C@H]1CCCN(Cc2cc3c(c(C(F)(F)F)c2)CN(c2cc(C4(Cc5nncn5C)COC4)cc(Cl)n2)C3=O)C1 [Compound 47, 2-(6-chloro-4-{3-[(4-methyl-1,2,4-triazol-3-yl)methyl]oxetan-3-yl}pyridin-2-yl)-6-{[(3S)-3-methylpiperidin-1-yl]methyl}-4-(trifluoromethyl)-3H-isoindol-1-one]	7.00 to 8.29	7.00 to 8.29	> 1.39	> 1.39	> 1.14	> 1.14	> 15	> 15	> 0.66	> 0.66	
C[C@H]1CCCN(Cc2cc3c(c(C(F)(F)F)c2)CN(c2cc(C4(Cc5nncn5C)COC4)ccn2)C3=O)C1 [Compound 48, (S)-2-(4-(3-((4-methyl-4H-1,2,4-triazol-3-yl)methyl)oxetan-3-yl)pyridin-2-yl)-6-((3-methylpiperidin-1-yl)methyl)-4-(trifluoromethyl)isoindolin-1-one]	8.30 to 9.00	8.30 to 9.00	> 1.39	> 1.39	> 1.14	> 1.14	> 15	> 15	> 0.66	> 0.66	
C[C@@H]1CN([C@@H](C)c2cc3c(c(C4CC4)n2)CN(c2cccc(C4(Cc5nncn5C)COC4)c2)C3=O)CCC1(F)F [Compound 49, 4-cyclopropyl-6-((S)-1-((R)-4,4-difluoro-3-methylpiperidin-1-yl)ethyl)-2-(3-(3-((4-methyl-4H-1,2,4-triazol-3-yl)methyl)oxetan-3-yl)phenyl)-2,3-dihydro-1H-pyrrolo[3,4-c]pyridin-1-one]	> 9.00		> 1.39	> 1.39	> 1.14	> 1.14	> 15	> 15	> 0.66	> 0.66	
C[C@H](c1cc2c(c(C3CC3)n1)CN(c1cccc(C3(Cc4nncn4C)COC3)c1)C2=O)N1CCC(F)(F)[C@H](C)C1 [Compound 50, 4-cyclopropyl-6-((R)-1-((R)-4,4-difluoro-3-methylpiperidin-1-yl)ethyl)-2-(3-(3-((4-methyl-4H-1,2,4-triazol-3-yl)methyl)oxetan-3-yl)phenyl)-2,3-dihydro-1H-pyrrolo[3,4-c]pyridin-1-one]	> 9.00		> 1.39	> 1.39	> 1.14	> 1.14	> 15	> 15	> 0.66	> 0.66	
C[C@H]1CCCN([C@@H](C)c2cc3c(c(C4CC4)n2)CN(c2cccc(C4(Cc5nncn5C)COC4)c2)C3=O)C1 [Compound 51, 4-cyclopropyl-2-(3-(3-((4-methyl-4H-1,2,4-triazol-3-yl)methyl)oxetan-3-yl)phenyl)-6-((S)-1-((S)-3-methylpiperidin-1-yl)ethyl)-2,3-dihydro-1H-pyrrolo[3,4-c]pyridin-1-one]	> 9.00		> 1.39	> 1.39	> 1.14	> 1.14	> 15	> 15	> 0.66	> 0.66	
C[C@H]1CCCN([C@H](C)c2cc3c(c(C4CC4)n2)CN(c2cccc(C4(Cc5nncn5C)COC4)c2)C3=O)C1 [Compound 52, 4-cyclopropyl-2-(3-(3-((4-methyl-4H-1,2,4-triazol-3-yl)methyl)oxetan-3-yl)phenyl)-6-((R)-1-((S)-3-methylpiperidin-1-yl)ethyl)-2,3-dihydro-1H-pyrrolo[3,4-c]pyridin-1-one]	8.30 to 9.00	8.30 to 9.00	> 1.39	> 1.39	> 1.14	> 1.14	> 15	> 15	> 0.66	> 0.66	
C[C@@H]1[C@@H](c2nncn2C)[C@H]1c1cccc(N2Cc3c(cccc3C(F)(F)F)C2=O)c1 [Compound 54]											fold induction at 0.3 µM [6, 17]: < 10; fold induction at 1 µM ([6]; anti-CD3/anti-CD28 co-stimulation, Table 9-1, read-out: IL-2 secretion CD3/CD28 1 μM): < 10; fold induction at 1 µM ([6]; anti-CD3 alone, Table 9-1, read-out: IL-2 secretion CD3 1 μM): < 0.33; fold induction at 0.3 µM [7, 18]: 1.25 to 1.39; fold induction at 1 µM ([7]; anti-CD3/anti-CD28 co-stimulation, Table 13-1, read-out: CD25 staining CD3/CD28 1 μM): 1.25 to 1.39; fold induction at 1 µM ([7]; anti-CD3 alone, Table 13-1, read-out: CD25 staining CD3 1 μM): > 1.14; pIC50 (Cbl-b [1]): < 8.30; pIC50 (Cbl-b [3]): < 8.30; fold induction at 0.3 µM [8, 18]: < 10; fold induction at 1 µM ([8]; anti-CD3/anti-CD28 co-stimulation, Table 13-1, read-out: IL-2 secretion CD3/CD28 1 μM): < 10; fold induction at 1 µM ([8]; anti-CD3 alone, Table 13-1, read-out: IL-2 secretion CD3 1 μM): < 0.33; fold induction at 0.3 µM [9, 17]: 1.25 to 1.39; fold induction at 1 µM ([9]; anti-CD3/anti-CD28 co-stimulation, Table 9-1, read-out: CD25 staining CD3/CD28 1 μM): 1.25 to 1.39; fold induction at 1 µM ([9]; anti-CD3 alone, Table 9-1, read-out: CD25 staining CD3 1 μM): > 1.14
